In patent US12102631B2, “Quinolylnitrones for the treatment and prevention of a cerebral stroke or ischaemia” (ISQUAEMIA BIOTECH, S.L., priority 2018, dated 2024):

Assays:
[1] = Inhibition of linoleic acid peroxidation (AAPH, ILPO); assay type: biochemical; details: tested at 100 μM
Protocol: Inhibition of Linoleic Acid Peroxidation.^32 For initiating the free radical, 2,2′-azobis(2-amidinopropane) dihydrochloride (AAPH) is used. The final solution in the UV cuvette consisted of ten microliters of the 16 mM linoleate sodium dispersion 0.93 mL of 0.05 M phosphate buffer, pH 7.4, thermostatted at 37° C. 50 μL of 40 mM AAPH solution was added as a free radical initiator at 37° C. under air and 10 μL of the tested compounds. The oxidation of linoleic acid sodium salt results a conjugated diene hydroperoxide. The reaction is monitored at 234 nm (Table 1).
3.3. Anti-lipid peroxidation activity of QNs. The water-soluble azo compound 2,2′-azobis(2-amidinopropane) dihydrochloride (AAPH) has been extensively used as a clean and controllable source of thermally produced alkyl peroxyl free radicals through spontaneous thermal decomposition. […] In the AAPH assay to determine the inhibition of the lipid peroxidation (ILPO), the highly reactive alkylperoxyl radicals are intercepted mainly by a hydrogen atom transfer from the antioxidant. As shown, QN23 presented limited value, where QNs 19, 22 and 24 presented very high values (Table 3).

[2] = system: global cerebral ischemia in Wistar rats; test: Neuronal death by Fluoro-Jade B staining after global cerebral ischemia; assay type: in vivo; details: R5 d
Protocol: (§1) Animal model of global cerebral ischemia, experimental design and administration of nitrones. Transient forebrain ischemia was induced in adult male Wistar rats (10-12 weeks, Charles River) by the standard four-vessel occlusion model (4V0) previously described.^44,56 Briefly, both vertebral arteries were irreversibly occluded by electrocoagulation under anesthesia with a mixture of atropine, ketamine and diazepam (0.25, 62.5, and 5 mg/kg, respectively) delivered by intraperitoneal injection. After 24 h, ischemia was induced by carotid occlusion with atraumatic clips for 15 min and then clips were removed from the carotid arteries to allow reperfusion. Body temperature of 37° C. was maintained. The animals were studied after 5 days of reperfusion (R5 d). We performed a power analysis (http://www.biomath.info/power/ttest.htm) to determine the sample size. We chose the significant level at 0.05, the power set at 0.8 (80%), and a ratio of control/treated group of 2:1, and the sample size obtained was 10 subjects per control group and <6 subjects per treated group. A total of 26 ischemic animals were used for the study of nitrone 23 efficacy. Here 6 animals were treated with 1.5 mg/kg of nitrone 23, or 40 mg/kg of compound 2, and 14 animals were included in control (vehicle) group, two of which died after 2 days. The treatments were performed with allocated concealment, assigning a random order to each vehicle or treated animal by computer-generated randomization program. […]
Neuronal death evaluation. Neuronal death was evaluated by Fluoro-Jade-B staining. Brain cryosections (10 μm thick) from ischemic animals that underwent reperfusion for 5 days were used after fixation to detect neuronal death by Fluoro-Jade-B staining,^44 and visualized by fluorescence microscopy. Labeled (dead) neuronal cells (in green) were counted as in TUNEL assay (see below). Data from different animals of each experimental group were independently analyzed by two observers, and treatment information was blindly performed throughout the study. […]

[3] = system: global cerebral ischemia in Wistar rats; test: Neurological deficit score after transient global cerebral ischemia (four-vessel occlusion); assay type: in vivo; details: 5 days of reperfusion, vehicle 3.3±0.21
Protocol: as §1, with “group.” for “group. A total of 26 ischemic animals were used for the study of nitrone 23 efficacy. Here 6 animals were treated with 1.5 mg/kg of nitrone 23, or 40 mg/kg of compound 2, and 14 animals were included in control (vehicle) group, two of which died after 2 days. The treatments were performed with allocated concealment, assigning a random order to each vehicle or treated animal by computer-generated randomization program.”
Animals were subjected to 15 min of cerebral ischemia, treated with vehicle or QN 23 at the onset of reperfusion period, and studied after 5 days of reperfusion (R5 d). We evaluated the neurological deficit score (NDS) to assess the effect of QN 23 following global ischemia-reperfusion in R5 d animals. […]

[4] = system: global cerebral ischemia in Wistar rats; test: Neuronal apoptosis by TUNEL assay after global cerebral ischemia; assay type: in vivo; details: R5 d
Protocol: as §1, with “program. Ischemic animals were treated with nitrone 23 diluted in 10% ethanol in saline as vehicle by intraperitoneal injection when the carotid arteries were unclamped for reperfusion.” for “program.”
TUNEL assay. Apoptotic neurons within brain sections were detected using the Terminal deoxynucleotidyl transferase-mediated dUTP Nick-End Labeling (TUNEL) assay (Promega). […]
The hippocampal CA1 subfield and cerebral and lateral cortex fields from a given section were analyzed with fluorescence microscopy (40× objective) to count the number of apoptotic nuclei (green). […]

[5] = 1.5 mg/kg i.p., compared with vehicle

In the case of CC(C)(C)/[N+]([O-])=C/c1ccc(S(=O)(=O)O)cc1S(=O)(=O)O [Compound 2, sodium (Z)-4-((tert-butyloxidoazanylidene)methyl)benzene-1,3-disulfonate, reference compound], the “ILPO (%) / AAPH (%)” value [1] is reported as “no”, the “effect on neuronal death, CA1 and cortical regions (in words)” value ([2]; 40 mg/kg) is reported as “did not produce a significant effect” and the “neurological deficit score (NDS)” value ([3]; 40 mg/kg) is reported as 2.5±0.28. The “effect on neuronal apoptosis (in words)” value ([4]; 40 mg/kg) was “induced a decrease of neuronal apoptosis, although it was not significant”.
In the case of CC(C)(C)/[N+]([O-])=C/c1cc2ccccc2nc1Cl [Compound 18, (Z)—N-t-Butyl-1-(2-chloroquinolin-3-yl)methanimine oxide], the “ILPO (%) / AAPH (%)” value [1] is reported as “no”.
For CC(C)(C)/[N+]([O-])=C/c1cc2ccccc2[nH]c1=O [Compound 19, (Z)—N-tert-Butyl-1-(2-oxo-1,2-dihydroquinolin-3-yl)methanimine oxide], the “ILPO (%) / AAPH (%)” value [1] was 100%.
With COc1ccc2nc(Cl)c(/C=[N+](/C)[O-])cc2c1 [Compound 22, (Z)-1-(2-Chloro-6-methoxyquinolin-3-yl)-N-methylmethanimine oxide] the “ILPO (%) / AAPH (%)” value [1] was 100%.
For COc1ccc2nc(Cl)c(/C=[N+](\[O-])C(C)(C)C)cc2c1 [Compound 23, (Z)—N-tert-Butyl-1-(2-chloro-6-methoxyquinolin-3-yl)methanimine oxide], the “ILPO (%) / AAPH (%)” value [1] was 22%, the “decrease of neuronal death, CA1 region” value [2, 5] was 33% and the “decrease of neuronal death, cortical region” value [2, 5] was 90%. The “neurological deficit score (NDS)” value ([3]; 1.5 mg/kg i.p. at onset of reperfusion) was 2.0±0.44, the “decrease of neuronal apoptosis, CA1 region” value ([4]; 1.5 mg/kg) was 39% and the “decrease of neuronal apoptosis, cerebral cortex” value ([4]; 1.5 mg/kg) was 84%.
For COc1ccc2nc(Cl)c(/C=[N+](\[O-])Cc3ccccc3)cc2c1 [Compound 24, (Z)—N-Benzyl-1-(2-chloro-6-methoxyquinolin-3-yl)methanimine oxide], the “ILPO (%) / AAPH (%)” value [1] was 100%.
With COc1ccc2nc(Cl)c(C=O)cc2c1 [Compound 32, 2-chloro-6-methoxyquinoline-3-carbaldehyde, reference compound] the “ILPO (%) / AAPH (%)” value [1] was 25%.
